Laboratory results published in paper PMC11961743 (Nature Communications, 2025).

Test system: SdPT
Assay: HPLC prenylation assay, yeast microsomes
Assay type: biochemical, Saposhnikovia divaricata
Details: saturating DMAPP and MgCl2; optimum pH 10.0, 45 °C

Km: 29.1 µM
SMILES: Cc1cc(=O)c2c(O)cc(O)cc2o1 [compound 2, noreugenin]
